{"source": "patent US20040110821A1", "about": "“GAL3 receptor antagonists for the treatment of affective disorders” (priority 2002, published 2004)", "key": {"[1]": {"target": "T1, human dopamine D4 receptor (Homo sapiens, UniProt P21917)", "T1 construct": "purchased BioSignal, Inc. (Montreal, Canada)", "T1 sequence (P21917 whole entry)": "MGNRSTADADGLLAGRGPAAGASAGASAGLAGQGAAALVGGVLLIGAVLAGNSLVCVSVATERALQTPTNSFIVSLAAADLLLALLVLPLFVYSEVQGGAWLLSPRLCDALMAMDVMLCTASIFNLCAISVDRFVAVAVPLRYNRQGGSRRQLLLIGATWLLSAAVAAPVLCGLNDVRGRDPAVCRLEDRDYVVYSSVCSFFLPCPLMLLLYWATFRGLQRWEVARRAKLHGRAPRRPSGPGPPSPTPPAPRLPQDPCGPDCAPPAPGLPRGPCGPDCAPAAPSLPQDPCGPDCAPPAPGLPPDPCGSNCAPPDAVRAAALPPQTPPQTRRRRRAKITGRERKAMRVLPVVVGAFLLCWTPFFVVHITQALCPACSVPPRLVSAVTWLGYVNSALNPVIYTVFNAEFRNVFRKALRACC", "test": "Binding at human dopamine D4 receptor", "conditions": "read-out: hD4 Ki", "excerpt": "(§1) Other receptors: Cell membranes expressing human dopamine D1, D2, D4 and rat D3 receptors were purchased through BioSignal, Inc. (Montreal, Canada). Binding assays using the histamine H1 receptor; dopamine receptors; and α1A, α1B, and α2 adrenergic receptors may be carried out according to the procedures described in U.S. Pat. No. 5,780,485, the disclosure of which is hereby incorporated by reference in its entirety into this application. Binding assays using the dopamine D5 receptor may be carried out according to the procedures described in U.S. Pat. No. 5,882,855, the disclosure of which is hereby incorporated by reference in its entirety into this application. Binding assays for the human α1D adrenergic receptor may be carried out according to the procedures described in U.S. Pat. No. 6,156,518, the disclosure of which is hereby incorporated by reference in its entirety into this application.\n(§2) Binding data were analyzed using nonlinear regression and statistical techniques available in the GraphPAD Prism package (San Diego, Calif.). Enzymatic assay data were derived from a standard curve of reference compound data."}, "[2]": {"target": "T2, Monoamine Oxidase B (central) (Rattus norvegicus, UniProt P19643)", "T2 construct": "Rat brain was used as the enzyme source; tissue NovaScreen (Hanover, Md.) performed the assay; host or cells: rat brain", "T2 sequence (P19643 whole entry)": "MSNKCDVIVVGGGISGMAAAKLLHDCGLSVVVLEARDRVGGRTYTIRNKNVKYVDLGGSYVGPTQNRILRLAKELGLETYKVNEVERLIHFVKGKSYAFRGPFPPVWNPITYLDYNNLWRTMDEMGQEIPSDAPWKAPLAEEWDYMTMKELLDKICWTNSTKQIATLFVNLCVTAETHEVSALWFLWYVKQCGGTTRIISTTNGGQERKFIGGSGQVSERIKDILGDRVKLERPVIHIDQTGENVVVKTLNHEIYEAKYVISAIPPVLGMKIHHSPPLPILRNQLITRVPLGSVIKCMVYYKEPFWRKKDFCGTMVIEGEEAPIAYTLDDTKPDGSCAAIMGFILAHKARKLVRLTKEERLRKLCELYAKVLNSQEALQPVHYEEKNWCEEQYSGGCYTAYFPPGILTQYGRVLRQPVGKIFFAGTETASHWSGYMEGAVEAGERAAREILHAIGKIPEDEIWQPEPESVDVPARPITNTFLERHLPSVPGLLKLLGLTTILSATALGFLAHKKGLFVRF", "test": "Central Monoamine Oxidase B Enzyme Assay", "type": "biochemical", "conditions": "rat brain as enzyme source", "experimental": "The methods to determine activity at monoamine oxidase enzymes (for example, central MAOA and MAOB) are described by Otsuka and Kobayashi, 1964, and were performed by NovaScreen (Hanover, Md.) with the following modifications.\nCentral Monoamine Oxidase B Enzyme Assay: Rat brain was used as the enzyme source. The assay was performed as described above for central MAOA, except the reference compound was RO 166491 and the subtype selective blocker was 100 nM clorgyline. Also, the substrate ([^14C]Phenylethylamine, 0.056 Ci/mmol) was added and incubated for 10 minutes.\nas §2"}, "human 5HT4 receptor": {"target": "T3, human 5HT4 receptor (Homo sapiens, UniProt Q13639)", "T3 construct": "expressed in transfected cells", "T3 sequence (Q13639 whole entry)": "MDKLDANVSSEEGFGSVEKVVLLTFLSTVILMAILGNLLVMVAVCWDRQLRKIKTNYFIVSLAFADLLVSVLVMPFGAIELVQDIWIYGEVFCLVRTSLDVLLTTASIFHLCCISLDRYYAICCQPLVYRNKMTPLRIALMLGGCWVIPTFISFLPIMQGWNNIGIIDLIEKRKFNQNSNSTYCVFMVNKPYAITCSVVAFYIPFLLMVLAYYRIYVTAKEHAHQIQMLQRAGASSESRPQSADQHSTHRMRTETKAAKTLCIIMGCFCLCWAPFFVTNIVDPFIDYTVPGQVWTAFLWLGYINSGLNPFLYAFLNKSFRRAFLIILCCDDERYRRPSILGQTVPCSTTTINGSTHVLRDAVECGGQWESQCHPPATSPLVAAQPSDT", "test": "Radioligand binding at 5-HT4 receptor", "conditions": "read-out: h5HT4 Ki", "experimental": "(§3) Other 5-HT ReceDtors: Other serotonin receptor binding assays were performed according to published methods: rat 5HT2c receptor (Julius et al., 1988); and 5-HT6 (Monsma, et al., 1993). The binding assays using the 5-HT4 receptor were performed according to the procedures described in U.S. Pat. No. 5,766,879, the disclosure of which is hereby incorporated by reference in its entirety into this application.\nas §2"}, "human 5HT1F receptor": {"target": "T4, human 5HT1F receptor (Homo sapiens, UniProt P30939)", "T4 construct": "expressed in transfected cells", "T4 sequence (P30939 whole entry)": "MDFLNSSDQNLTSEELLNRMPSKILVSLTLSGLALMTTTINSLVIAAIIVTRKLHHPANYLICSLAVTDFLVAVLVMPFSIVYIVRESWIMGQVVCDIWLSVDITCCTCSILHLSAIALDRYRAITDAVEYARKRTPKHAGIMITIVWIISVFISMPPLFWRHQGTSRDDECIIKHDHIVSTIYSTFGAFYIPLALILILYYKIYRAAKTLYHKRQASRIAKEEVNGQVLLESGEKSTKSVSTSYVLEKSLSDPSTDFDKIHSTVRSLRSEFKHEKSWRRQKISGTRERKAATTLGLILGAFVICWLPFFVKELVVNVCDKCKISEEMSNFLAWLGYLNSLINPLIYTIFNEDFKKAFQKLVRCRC", "test": "Radioligand binding at human 5HT1F receptor", "conditions": "read-out: h5HT1F Ki", "experimental": "(§4) Human 5HT1B, 5HT1D, 5HT1E, 5HT1F, and 5HT7 ReceDtors: The cell lysates of LM(tk-) clonal cell line stably transfected with the genes encoding each of these 5HT receptor-subtypes were prepared as described above. Cell membranes were suspended in 50 mM Tris-HCl buffer (pH 7.4 at 37° C.) containing 10 mM MgCl2, 0.2 mM EDTA, 10 µM pargyline, and 0.1% ascorbate. […] Nonspecific binding was determined in the presence of 10 μM serotonin. The bound radioligand was separated by filtration through GF/B filters using a cell harvester.\nas §2"}, "rat D3 receptor": {"target": "T5, rat D3 receptor (Rattus norvegicus, UniProt P19020)", "T5 construct": "purchased BioSignal, Inc. (Montreal, Canada)", "T5 sequence (P19020 whole entry)": "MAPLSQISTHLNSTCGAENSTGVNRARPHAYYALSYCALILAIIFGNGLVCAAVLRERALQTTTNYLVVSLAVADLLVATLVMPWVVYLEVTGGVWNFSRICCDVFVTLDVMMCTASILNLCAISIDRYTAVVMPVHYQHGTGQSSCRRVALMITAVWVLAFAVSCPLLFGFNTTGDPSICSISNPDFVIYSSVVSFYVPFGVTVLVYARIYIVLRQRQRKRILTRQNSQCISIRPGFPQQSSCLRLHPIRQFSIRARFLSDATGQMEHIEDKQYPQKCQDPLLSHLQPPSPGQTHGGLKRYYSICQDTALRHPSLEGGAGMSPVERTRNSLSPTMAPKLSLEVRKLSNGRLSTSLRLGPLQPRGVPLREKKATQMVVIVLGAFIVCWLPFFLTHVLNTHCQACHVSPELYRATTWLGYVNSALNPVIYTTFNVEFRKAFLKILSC", "test": "Binding at rat dopamine D3 receptor", "conditions": "read-out: rD3 Ki", "excerpt": "as §1, §2"}, "human 5HT1E receptor": {"target": "T6, human 5HT1E receptor (Homo sapiens, UniProt P28566)", "T6 construct": "expressed in transfected cells", "T6 sequence (P28566 whole entry)": "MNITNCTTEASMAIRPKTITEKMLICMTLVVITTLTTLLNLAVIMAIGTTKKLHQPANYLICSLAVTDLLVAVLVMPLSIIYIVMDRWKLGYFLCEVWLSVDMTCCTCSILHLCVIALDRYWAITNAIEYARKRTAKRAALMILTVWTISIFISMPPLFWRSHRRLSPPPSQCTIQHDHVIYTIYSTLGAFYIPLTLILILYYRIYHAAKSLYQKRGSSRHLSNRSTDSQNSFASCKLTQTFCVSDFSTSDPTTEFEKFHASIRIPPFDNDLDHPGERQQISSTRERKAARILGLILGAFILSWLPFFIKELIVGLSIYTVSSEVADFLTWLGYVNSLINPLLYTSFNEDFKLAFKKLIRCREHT", "test": "Radioligand binding at human 5HT1E receptor", "conditions": "read-out: h5HT1E Ki", "experimental": "as §4, §2"}, "[3]": {"target": "T7, human dopamine D1 receptor (Homo sapiens, UniProt P21728)", "T7 construct": "purchased BioSignal, Inc. (Montreal, Canada)", "T7 sequence (P21728 whole entry)": "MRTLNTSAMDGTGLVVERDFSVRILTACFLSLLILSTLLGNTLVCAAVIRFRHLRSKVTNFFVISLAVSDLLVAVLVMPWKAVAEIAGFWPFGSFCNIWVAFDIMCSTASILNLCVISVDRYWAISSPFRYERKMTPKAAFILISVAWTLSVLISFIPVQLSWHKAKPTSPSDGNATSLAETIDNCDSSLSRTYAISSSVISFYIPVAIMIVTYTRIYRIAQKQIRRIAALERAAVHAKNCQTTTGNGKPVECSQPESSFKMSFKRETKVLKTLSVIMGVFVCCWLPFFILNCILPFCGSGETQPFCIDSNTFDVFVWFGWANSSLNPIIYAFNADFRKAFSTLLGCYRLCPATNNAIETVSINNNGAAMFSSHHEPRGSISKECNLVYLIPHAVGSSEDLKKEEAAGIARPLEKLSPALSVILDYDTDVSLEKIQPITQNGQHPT", "test": "Binding at human dopamine D1 receptor", "conditions": "read-out: hD1 Ki", "excerpt": "as §1, §2"}, "human 5HT6 receptor": {"target": "T8, human 5HT6 receptor (Homo sapiens, UniProt P50406)", "T8 construct": "expressed in transfected cells", "T8 sequence (P50406 whole entry)": "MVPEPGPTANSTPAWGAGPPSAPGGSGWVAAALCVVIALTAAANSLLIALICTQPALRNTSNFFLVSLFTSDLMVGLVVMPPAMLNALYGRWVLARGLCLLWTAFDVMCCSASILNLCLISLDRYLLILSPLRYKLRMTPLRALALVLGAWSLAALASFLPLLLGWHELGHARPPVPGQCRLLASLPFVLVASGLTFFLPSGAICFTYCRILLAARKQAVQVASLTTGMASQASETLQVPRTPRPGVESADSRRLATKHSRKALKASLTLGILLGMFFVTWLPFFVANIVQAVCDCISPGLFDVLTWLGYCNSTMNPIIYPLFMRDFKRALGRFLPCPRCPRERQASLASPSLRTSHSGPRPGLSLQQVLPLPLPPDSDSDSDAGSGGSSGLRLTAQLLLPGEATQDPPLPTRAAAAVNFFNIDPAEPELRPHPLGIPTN", "test": "Radioligand binding at 5-HT6 receptor", "conditions": "read-out: h5HT6 Ki", "experimental": "as §3, §2"}, "[4]": {"target": "T9, human α2C adrenergic receptor (Homo sapiens, UniProt P18825)", "T9 construct": "expressed in transfected cells", "T9 sequence (P18825 whole entry)": "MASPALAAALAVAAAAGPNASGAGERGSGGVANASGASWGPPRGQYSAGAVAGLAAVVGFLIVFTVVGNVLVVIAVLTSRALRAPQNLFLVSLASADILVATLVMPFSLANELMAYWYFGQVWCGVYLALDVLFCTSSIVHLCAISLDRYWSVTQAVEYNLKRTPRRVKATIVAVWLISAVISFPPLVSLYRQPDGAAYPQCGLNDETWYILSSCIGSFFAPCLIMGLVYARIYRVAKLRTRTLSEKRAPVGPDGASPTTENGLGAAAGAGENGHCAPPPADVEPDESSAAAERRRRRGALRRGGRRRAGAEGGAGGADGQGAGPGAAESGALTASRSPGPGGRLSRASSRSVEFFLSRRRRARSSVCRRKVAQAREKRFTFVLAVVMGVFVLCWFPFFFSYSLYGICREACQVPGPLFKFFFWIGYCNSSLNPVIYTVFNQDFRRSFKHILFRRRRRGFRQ", "test": "Binding at human α2C adrenergic receptor", "conditions": "read-out: hα2C Ki", "excerpt": "as §1, §2"}}, "data": [{"smiles": "O=C1C(=Nc2cccc(C(F)(F)F)c2)c2ccccc2N1c1ccccc1", "note": "[Example 92, 1-PHENYL-3-[[3-(TRIFLUOROMETHYL)PHENYL]IMINO]-1,3-DIHYDRO-2H-INDOL-2-ONE]", "values": [{"measurement": "Ki", "setting": "[1]", "value": 41.4, "unit": "µM"}, {"measurement": "% INHIBITION", "setting": "[2]", "value": 1, "unit": "%"}, {"measurement": "Ki", "setting": "human 5HT4 receptor", "value": 0.072, "unit": "µM"}, {"measurement": "Ki", "setting": "human 5HT1F receptor", "value": 5.29, "unit": "µM"}, {"measurement": "Ki", "setting": "rat D3 receptor", "value": 48.2, "unit": "µM"}, {"measurement": "Ki", "setting": "human 5HT1E receptor", "value": 18.9, "unit": "µM"}, {"measurement": "Ki", "setting": "[3]", "value": "> 50", "unit": "µM"}, {"measurement": "Ki", "setting": "human 5HT6 receptor", "value": "> 50", "unit": "µM"}, {"measurement": "Ki", "setting": "[4]", "value": "> 50", "unit": "µM"}]}]}
